These results are taken from article PMC6943742, “Peptide/Peptoid Hybrid Oligomers: The Influence of Hydrophobicity and Relative Side-Chain Length on Antibacterial Activity and Cell Selectivity” (Molecules, 2019).

Data set [1] is described as follows: Relative hydrophobicity by RP-HPLC (% MeCN at peak elution). The class given is physicochemical. The note with it: RP-HPLC gradient 0 → 60% B during 10 min; % MeCN at peak elution calculated from retention time.
A further data set deals with A. baumannii ATCC 19606. It counts as cell-based. The note with it: ATCC 19606, 20 h. Put shortly: (§1)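 MIC by broth microdilution (modified Hancock protocol) in Mueller-Hinton broth with 4 mg/L each of Mg2+ and Ca2+, ~2 × 10^5 CFU/mL, in non-binding plates. Compounds were diluted in 0.01% acetic acid/0.2% BSA. Plates were read after 20 h at 35 °C with 220 rpm shaking.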

The next data set relates to E. coli ATCC 25922. It counts as cell-based. To be noted: ATCC 25922, 20 h. In a few lines: as §1
The subject of the next data set is E. faecalis ATCC 29212. It counts as cell-based. The note with it: ATCC 29212, 20 h. In a few lines:
as §1

The subject of a further data set is K. pneumoniae ATCC 13883. It counts as cell-based. The note with it: ATCC 13883, 20 h. Put shortly:
as §1

A further data set concerns P. aeruginosa ATCC 27853. It counts as cell-based. The note with it: ATCC 27853, 20 h. In a few lines: as §1
The test system of the next data set is P. aeruginosa PAO1. It counts as cell-based. The note with it: PAO1, 20 h. Put shortly:
as §1

The next data set deals with S. aureus ATCC 29213. The class given is cell-based. To be noted: ATCC 29213, 20 h. In a few lines:
as §1

Data set [2] can be described thus: in vitro. It counts as cell-based. To be noted: human. In a few lines:
(§2)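 HepG2 cells at 80−90% confluency exposed 48 h (37 °C, 5% CO2) to two-fold serial dilutions over 10–1280 μg/mL. Viability by MTT (0.2 mg/mL, 3 h), A540 after DMSO solubilisation, as % of untreated control; IC50 from curve fit.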

Data set [3] relates to HepG2 cell line ATCC HB-8065. Nature of the data set: in vitro. It counts as cell-based. The note with it: 48 h. In a few lines:
as §2

A short description of data set [4]: in vitro. It counts as cell-based. The note with it: human, Hemolytic Activity (percentage hemolysis). In a few lines: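 Washed fresh human erythrocytes, as a 0.5% v/v suspension, were mixed with an equal volume of twofold peptidomimetic dilutions in PBS and incubated 60 min at 37 °C. Hemoglobin released into the supernatant was read at OD 405 nm, with 0.1% SDS as 100% and PBS as 0% hemolysis. Test concentrations were 200, 400 and 800 μg/mL.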

Details of data set [5]: method as in PMID 29198866. To be noted: peptoid oligomers; cited from earlier work.
Another data set concerns human red blood cells. The note with it: cited from earlier work.

Values after ≈ are worked out from the molar mass of the structure shown. Non-standard residues stand in square brackets, D forms with d. Residues, ends and D or L forms follow the SMILES beside them. Nphe = O=C(O)CNCc1ccccc1

On to `NCCCC[C@H](NC(=O)CN(Cc1ccccc1)C(=O)[C@H](CCCCN)NC(=O)CN(Cc1ccccc1)C(=O)[C@H](CCCCN)NC(=O)CN(Cc1ccccc1)C(=O)[C@H](CCCCN)NC(=O)CN(Cc1ccccc1)C(=O)[C@H](CCCCN)NC(=O)CN(Cc1ccccc1)C(=O)[C@@H](N)CCCCN)C(=O)N(CC(N)=O)Cc1ccccc1` [Peptidomimetic 11] (H-K[Nphe]K[Nphe]K[Nphe]K[Nphe]K[Nphe]K[Nphe]-NH2), for which the “Hydrophobicity (% MeCN at elution)” value in data set [1] is 36.9%. For the same compound, the MIC (in general, the least concentration at which growth counts as inhibited) in the data set on A. baumannii ATCC 19606 was >64 µg/mL; in the data set on E. coli ATCC 25922, 4 to 8 µg/mL; in the data set with E. faecalis ATCC 29212 it was >64 µg/mL; in the data set with K. pneumoniae ATCC 13883, 64 µg/mL (≈ 38.3 µM); against P. aeruginosa ATCC 27853, 4 µg/mL (≈ 2.4 µM); in the data set on P. aeruginosa PAO1, 8 to 16 µg/mL. Further, the MIC with S. aureus ATCC 29213 is reported as >64 µg/mL. In addition, in “in vitro [2]”, the viability (in general, a read-out of living cells in per cent, often relative to untreated cells) at 48 h, 1280 µg/mL is 76%. Moreover, the “IC50 for inhibiting growth of HepG2 cells” value in data set [3] was >1280 µg/mL. The hemolysis at 60 min, 800 µg/mL in the data set “in vitro [4]” worked out at 10%.

Take H-(NLys-Nspe-Nspe)4-NH2: in data set [5], the “Hydrophobicity (% MeCN at peak elution)” value was 53.6 % MeCN. Also, the “Concentration resulting in 10% hemolysis” value in the data set with human red blood cells is on record as 9.1 µM.
